Reference: patent US9585854B2, “N-acetyl-L-cysteine for use in in vitro fertilization” (IASOMAI AB, priority 2012, dated 2017)
“And” between values parts separate entries of the source, which are not always exact repeats. Identical values can stand only once. Like-named read-outs stand apart in the source and are kept apart here.

Assays:
human spermatozoa = experiment: human sperm motility bioassay (toxicity test); format: cell-based
Method: The eventual occurrence of NAC embryotoxicity was preliminary tested.
Assessments of human sperm motility were performed on fresh samples taken from 3 healthy donors with good seminal parameters including sperm motility and velocity. Migration or “Swim-up” on human sperm preparation medium was applied to select motile spermatozoa. After selection each semen sample was divided into 3 aliquots transferred to Eppendorf tubes. In addition to one control tube, two tubes had NAC added at concentrations of 100 and 1,000 nM. Tubes were incubated in a 5% CO2 environment, with constant temperature and humidity conditions for 24 hours. Sperm motility was assessed using a contrast phase microscope at a 400 times magnification after 1, and 24 hours of exposure to NAC. Assessment was performed over a fixed time interval of 2 minutes. Nine samples were assessed for sperm motility and velocity by 36 measurements (2 measurements at 1 and 24 h per sample).

1-cell rabbit embryos [1] = experiment: rabbit embryo bioassay (embryotoxicity)
From the text: (§1) To verify the embryotoxicity of NAC the application of two embryotoxicity techniques—rabbit embryo bioassay and human sperm motility bioassay—were used.

[2] = test system: normal human epidermal keratinocytes; experiment: micro array gene expression analysis (Affymetrix GeneChip); format: cell-based; conditions: vs untreated
Method: The present experiments were carried out to elucidate if NAC treatment influence integrin and fibronectin gene expression by gene expression analysis using the Affymetrix GeneChip platform.
A micro array based gene expression analysis of the normal human epidermal keratinocytes was performed 1 and 12 hours after addition of NAC, compared to untreated (i.e. control samples at the same time points). Data obtained from GeneChip analysis were processed using the RNA analysis approach and samples were normalized to their corresponding controls. Filtering was done based on two criteria (p-value <0.1 and >1.5 fold up- or >0.5 down-regulation) for each time point. The labelling and hybridisation was done in duplicate.

[3] = thiol residue easily oxidized by oxygen, light and other radiations; cited from earlier work
[4] = cited from earlier work
pregnancy = experiment: pulsed oral administration of NAC to patients; format: in vivo, human; conditions: three consecutive days a week
Method: Below is the result from giving pulsed administration of NAC to 15 patients, 8 of which became pregnant. According to this, NAC was administered to patients per os for 3 months or more according to the following schedule: 600 mg three times a day, three consecutive days a week. […] 7, no. 4, pp. 355-359, 2007.]; (2) splitting the total dose in 3 is simple for patients and, with reference to the known NAC pharmacokinetics [[…] and […], “Pharmacokinetic and pharmacodynamic studies of N-acetylcysteine, a potential chemopreventive agent during a phase I trial,” Cancer Epidemiology Biomarkers and Prevention, vol. 4, no. 3, pp. 245-251, 1995.], grants a nearly constant plasma level of the drug; (3) the four-day medication-free interval provides a washout period useful to limit the reported decrease of NAC plasma level observed during prolonged treatments. According to examples described in the specification 15 patients were treated with pulsed administration of N-acetyl-L-cysteine for use in IVF orally in a dose of 600 mg three times a day during three consecutive days followed by four days of interruption during 3 months or more.

Jurkat cells = experiment: Cell adhesion assay of Jurkat cells on fibronectin; format: cell-based, human; conditions: NAC 5 mM for 2 h pretreatment, eosin Y absorbance 540 nm, vs control
Method: Cell Adhesion Assay. Seven μg/ml of human fibronectin (Sigma Aldrich Chem Co) were saturated with 2% bovine serum albumin (BSA) for 30 min at 37° C. and washed twice with phosphate buffered saline (PBS). Jurkat cells were then seeded onto the wells for 2 h at 37° C.; then, nonadherent cells were aspirated, and the wells were rinsed with PBS. Adhering cells were fixed overnight with 2% formaldehyde and stained with eosin Y for 30 min. Eosin Y was then extracted by addition of a mixture of 1% of glacial acetic acid and 50% ethanol, and absorbance was measured at 540 nm.
NAC increases the adhesions of Jurkat cells on fibronectin. The adhesion assay was performed by using control or NAC (5 mM for 2 h)-treated Jurkat cells. […] Cell adhesion was then quantitated by staining the cells attached to junction protein-coated plates with eosin Y and reading the absorbance in a microplate reader.
Cells were solubilized and eosin Y and absorbance was quantitated at 540 nm. No antibody, illustrated by black bars; anti-VLA-4 (10 ng/ml) illustrated by grey bars; and anti-VLA-4 (10 μg/ml) illustrated by white bars. Data are means+/−SE(n=3).*, P less than 0.01 vs. control. From FIG. 1 it can be concluded that NAC treatment increases adhesion (junction protein molecules).

IVF = experiment: NAC administration in connection with IVF treatment (clinical outcome); format: in vivo, human
From the text: To date, NAC has not been considered a drug in fertility treatment although it has been used for oral treatment of endometrioses as described in EP 2305238. In that study no conclusions about pregnancies were made. To the contrary when being treated for endometriosis it was not expected that any pregnancies could occur. […] This was one of the reasons why the present inventors started investigating whether NAC could be used in connection with IVF.
Already from the start of IVF it has been a problem that the clinical outcome in IVF treatment is low.
The composition of the present invention, comprising NAC for the treatment of IVF according to one embodiment to be administered intravenously at a dose between approximately 50 and 150 mg/kg/day.
In still another embodiment of the present invention the composition comprises NAC to be administered orally at a dose of approximately 30-45 mg/kg/day.

1-cell rabbit embryos [5] = test system: 1-cell rabbit embryos
From the text: as §1

[6] = cited from earlier work; remark: listed apart in the source
embryo implantation = embryo implantation in oxytocin-treated mice; format: in vivo; conditions: oxytocin-treated mice
From the text: Indeed, in mice, NAC was confirmed to support embryo implantation. In the animal model, embryo implantation rate was decreased when the mice were given oxytocin.
In mice, NAC was confirmed to support embryo implantation. In the animal model, embryo implantation rate was decreased when the mice were given oxytocin.

[7] = test system: cancer cells of epithelial origin; conditions: cited from earlier work
[8] = concentrations up to 50-fold therapeutic blood concentrations

For CC(=O)N[C@@H](CS)C(=O)O [NAC, N-acetyl-L-cysteine], the “adverse influence on human spermatozoa” value (human spermatozoa) was “failed to show an adverse influence”, the “human sperm motility or velocity compared to controls” value (human spermatozoa; NAC 100 and 1,000 nM, 1 and 24 hours of exposure) was “no effects” and the embryotoxic effect (human spermatozoa; [8]) was “failed to detect an embryotoxic effect”. For the same molecule, the “percentage of hatched rabbit blastocysts” value (1-cell rabbit embryos [1]) was “not to decrease the percentage of hatched rabbit blastocysts”, the embryotoxic effect (1-cell rabbit embryos [1]; [8]) was “failed to detect an embryotoxic effect” and the “integrin alpha 2 gene expression” value ([2]; 1 hr after NAC treatment) was “up-regulated”. For the same molecule, the fibronectin gene expression ([2]; 12 hours after NAC) was “upregulated”, the stability [3] was “not a stable molecule” and the side effects ([4]; daily total NAC dose, per os) was “virtually free of side effects”. For the same molecule, the undesired side effect ([4]; general, doses in paracetamol poisoning about 40 g/day for 70 kg) was “virtually absent of undesired side effect”, the side effects ([4]; intravenous, higher limit 150 mg/kg/day) was “virtually no side effects” and the “pregnancy after months post NAC treatment” value (pregnancy; individual patients 1-8, pulsed oral NAC 600 mg three times a day) was 14 months and 3 months and 1 months (2×) and 19 months and 8 months and 6 months and 0 months. For the same molecule, the “patients who became pregnant” value (pregnancy; of 15 patients, per os 600 mg three times a day, 3 months or more) was 8, the “augmentation of cell adhesion” value (Jurkat cells) was ~35% and the live births (IVF; NAC preferably a few days prior to IVF treatment) was “higher percentage of live births”. For the same molecule, the “effectiveness in IVF” value (IVF; intravenous, lower limit approximately 50 mg/kg/day) was “effective in IVF”, the IVF outcome (IVF; one person who had taken NAC orally for endometriosis, two previous IVF trials failed) was “successful IVF treatment” and the “effect in connection with IVF” value (IVF; oral, approximately 30-45 mg/kg/day) was “give effect in connection with IVF”. For the same molecule, the “survival of 1-cell rabbit embryos” value (1-cell rabbit embryos [5]) was “not to affect the survival of 1-cell rabbit embryos”, the “NAC plasma level after prolonged treatments” value ([6]; Pendyala and Creaven 1995) was “decrease in NAC plasma level” and the “diffusion in tissues and cells” value ([6]; in vivo) was “freely diffuses in almost all tissues and cells”. For the same molecule, the “peak concentration in plasma reached in” value ([6]; in vivo) was “about one”, the half-life ([6]; plasma) was “about three” and the implantation rates (embryo implantation) was “dose-dependently restored”. The “effect on proliferation of cancer cells of epithelial origin” value ([7]; Cell Death and Differentiation 2005) was “marked antiproliferative effect” and the “cell-cell and cell-substratum adhesion complexes” value ([7]; NAC-treated cancer cells) was “considerable increase”.
